Measurements taken from US20070249720A1, “Thiourea Derivative-Containing Pharmaceutical Composition Having Improved Solubility and Bioavailability” (priority 2003, published 2007).
Converted amounts (≈) assume the structure as drawn.

Tests used:
[1] = Comparative dissolution test (Paddle method, Korean pharmacopoeia); assay type: physicochemical; settings: water as release solvent, 37° C., 50 rpm, FIG. 1
Description: 1-(4-t-butylbenzyl)-3-(3-fluoro-4-methanesulfonylaminobenzyl)thiourea (Compound 1) and the tablet prepared in Formulation Example 2 were subjected to test in accordance with dissolution test method II (Paddle method) described in Korean pharmacopoeia using water as a release solvent.
3 ml samples were taken at a given time interval under the condition of 37° C. and 50 rpm, and filtered through a 0.45 micrometer filter. The concentration of Compound 1 in each sample was determined by HPLC.

[2] = Test for pharmacokinetics after oral administration to rats; assay type: in vivo; settings: orally administered, 10 mg/kg
Text: 1-(4-t-Butylbenzyl)-3-(3-fluoro-4-methanesulfonylaminobenzyl)thiourea (Compound 1) and the liquid formulation prepared in Formulation Example 3 were each orally administered to rats, and the changes in the plasma drug concentration were monitored according to a set time schedule. Each experimental animal group consisted of four male rats. After the rats were anesthetized with ether and operated for inserting a PE-50 polyethylene tube into the femoral artery, the suspension of Compound 1 in 0.5% sodium carboxymethylcellulose solution and the liquid formulation of Formulation Example 3 were each orally administered to the rats. At 15, 30, 60, 120, 210, 300 and 480 minutes after the administration, 150 micro liter blood samples were taken from the rats. Each blood sample was centrifuged to separate plasma, which was then subjected to HPLC to determine the concentration of Compound 1 in plasma.

[3] = Solubility of Compound 1 in 2-hydroxypropyl-β-cyclodextrin solution in glycine buffer (pH 10.5) (HPLC); assay type: physicochemical; settings: thermodynamic from solid, stirred 72 hours
Description: 0.4 g of 1-(4-t-butylbenzyl)-3-(3-fluoro-4-methanesulfonylaminobenzyl)thiourea (Compound 1) was added to each 10 ml of 0, 1.5, 3.5, 7.0, 14.0 and 28.0 w/v % 2-hydroxypropyl-β-cyclodextrin solution in glycine buffer (pH 10.5). The resulting mixture was stirred for 72 hours, filtered through a 0.2 micrometer filter paper.
The concentration of Compound 1 in the filtrate was determined by high performance liquid chromatography (HPLC) and the solubility of Compound 1 depending on the concentration of 2-hylroxypropyl-β-cyclodextrin is presented in Table 2.

[4] = Solubility of Compound 1 in 95% ethanol solution containing 2-hydroxypropyl-β-cyclodextrin (HPLC); assay type: physicochemical; settings: organic solvent or mixture, thermodynamic from solid, stirred 72 hours
Description: 5 g of 1-(4-t-butylbenzyl)-3-(3-fluoro-4-methanesulfonylaminobenzyl)thiourea (Compound 1) was added to 100 ml of 95% ethanol solution containing 0, 1.0, 2.0, 5.0, 10.0 or 20.0 w/v % of 2-hylroxypropyl-β-cyclodextrin, and the mixture was stirred for 72 hours and then filtered through a 0.2 micrometer filter paper. The concentration of Compound 1 in the filtrate was determined by high performance liquid chromatography (HPLC) and the solubility of Compound 1 depending on the concentration of 2-hydroxypropyl-β-cyclodextrin is presented in Table 4.

[5] = Solubility of Compound 1 in aqueous 2-hydroxypropyl-β-cyclodextrin solutions (HPLC); assay type: physicochemical; settings: aqueous 2-hydroxypropyl-β-cyclodextrin solution, thermodynamic from solid, stirred 72 hours
Description: 0.4 g of 1-(4-t-butylbenzyl)-3-(3-fluoro-4-methanesulfonylaminobenzyl)thiourea (Compound 1) was added to each 10 ml of 0, 1.5, 3.5, 7.0, 14.0 and 28.0 w/v % aqueous solutions of 2-hydroxypropyl-β-cyclodextrin. The resulting mixture was stirred for 72 hours, filtered through a 0.2 micrometer filter paper. The concentration of Compound 1 in the filtrate was determined by high performance liquid chromatography (HPLC) and the solubility of Compound 1 depending on the concentration of 2-hydroxypropyl-β-cyclodextrin is presented in Table 1.

- percent dissolution of drug [1]: insoluble in water
- bioavailability ([2]; male, rat, plasma, po, read-out: BA: Bioavailability): 16.5%
- Cmax ([2]; male, rat, plasma, po, read-out: Cmax: Maximum plasma concentration): 670 ng/mL
- Tmax ([2]; male, rat, plasma, po, read-out: Tmax: Time at the maximum plasma concentration): 30 min
- AUC: Area under the plasma concentration vs. time curve till 24 hours [2]: 2.79 microgram · h/ml
- solubility at 72 h ([3]; pH 10.5, aqueous buffer, 0 w/v % 2-hydroxypropyl-β-cyclodextrin): 0.05 mg/mL (≈ 0.118 mM)
- solubility at 72 h ([3]; pH 10.5, aqueous with cosolvent or surfactant or cyclodextrin, 1.5 w/v % 2-hydroxypropyl-β-cyclodextrin): 2.7 mg/mL (≈ 6.37 mM)
- solubility at 72 h ([3]; pH 10.5, aqueous with cosolvent or surfactant or cyclodextrin, 3.5 w/v % 2-hydroxypropyl-β-cyclodextrin): 4.8 mg/mL (≈ 11.3 mM)
- solubility at 72 h ([3]; pH 10.5, aqueous with cosolvent or surfactant or cyclodextrin, 7.0 w/v % 2-hydroxypropyl-β-cyclodextrin): 9.62 mg/mL (≈ 22.7 mM)
- solubility at 72 h ([3]; pH 10.5, aqueous with cosolvent or surfactant or cyclodextrin, 14.0 w/v % 2-hydroxypropyl-β-cyclodextrin): 18 mg/mL (≈ 42.5 mM)
- solubility at 72 h ([3]; pH 10.5, aqueous with cosolvent or surfactant or cyclodextrin, 28.0 w/v % 2-hydroxypropyl-β-cyclodextrin): 32.5 mg/mL (≈ 76.7 mM)
- solubility at 72 h ([4]; 0 w/v % 2-hydroxypropyl-β-cyclodextrin): 19.7 mg/mL (≈ 46.6 mM)
- solubility at 72 h ([4]; 1.0 w/v % 2-hydroxypropyl-β-cyclodextrin): 21.2 mg/mL (≈ 50.1 mM)
- solubility at 72 h ([4]; 2.0 w/v % 2-hydroxypropyl-β-cyclodextrin): 22.7 mg/mL (≈ 53.5 mM)
- solubility at 72 h ([4]; 5.0 w/v % 2-hydroxypropyl-β-cyclodextrin): 27.2 mg/mL (≈ 64.3 mM)
- solubility at 72 h ([4]; 10.0 w/v % 2-hydroxypropyl-β-cyclodextrin): 34.1 mg/mL (≈ 80.6 mM)
- solubility at 72 h ([4]; 20.0 w/v % 2-hydroxypropyl-β-cyclodextrin): 43.5 mg/mL (≈ 103 mM)
- solubility at 72 h ([5]; aqueous with cosolvent or surfactant or cyclodextrin, 1.5 w/v % 2-hydroxypropyl-β-cyclodextrin): 0.4 mg/mL (≈ 0.944 mM)
- solubility at 72 h ([5]; aqueous with cosolvent or surfactant or cyclodextrin, 3.5 w/v % 2-hydroxypropyl-β-cyclodextrin): 1.04 mg/mL (≈ 2.46 mM)
- solubility at 72 h ([5]; aqueous with cosolvent or surfactant or cyclodextrin, 7.0 w/v % 2-hydroxypropyl-β-cyclodextrin): 4.18 mg/mL (≈ 9.87 mM)
- solubility at 72 h ([5]; aqueous with cosolvent or surfactant or cyclodextrin, 14.0 w/v % 2-hydroxypropyl-β-cyclodextrin): 12.2 mg/mL (≈ 28.9 mM)
- solubility at 72 h ([5]; aqueous with cosolvent or surfactant or cyclodextrin, 28.0 w/v % 2-hydroxypropyl-β-cyclodextrin): 29 mg/mL (≈ 68.4 mM)
- solubility at 72 h ([5]; water, 0 w/v % 2-hydroxypropyl-β-cyclodextrin): 0.01 mg/mL (≈ 0.0236 mM)
Structure (SMILES): CC(C)(C)c1ccc(CNC(=S)NCc2ccc(NS(C)(=O)=O)c(F)c2)cc1 [Compound 1, 1-(4-t-butylbenzyl)-3-(3-fluoro-4-methanesulfonylaminobenzyl)thiourea]
